Laboratory results from patent publication EP2444396A1, “PHOTOPROTECTIVE COMPOSITION” (Apoteknos Para La Piel, S.L., priority 2009, dated 2010).
Where “and” joins values, the source holds several entries; their conditions need not be identical. Identical values can stand only once.

Assay: UV spectrum: wavelengths of maximum absorption and absorbance (Cecil 2021 UV-Visible Spectrophotometer)
Format: physicochemical
Conditions: for UV spectrum λ (nm): wavelengths of the maximum absorption; for UV spectrum A (a.u): absorbance at the maximum of the same line

| Structure (SMILES) | UV spectrum λ (nm) | UV spectrum A (a.u) |
| --- | --- | --- |
| COc1ccc(-c2nc(-c3ccccc3)c(-c3ccccc3)[nH]2)cc1 [2-(4-methoxyphenyl)-4,5-diphenyl-1H-imidazole] | 252.5 nm and 297.5 nm |  |
| Fc1ccc(-c2nc(-c3ccccc3)c(-c3ccccc3)[nH]2)cc1 [2-(4-fluorophenyl)-4,5-diphenyl-1H-imidazole] | 224.0 nm and 297.5 nm | 1.117 a.u and 1.536 a.u |
| O=[N+]([O-])c1ccc(-c2nc(-c3ccc([N+](=O)[O-])cc3)c(-c3ccc([N+](=O)[O-])cc3)[nH]2)cc1 [2,4,5-tris(4-nitrophenyl)-1H-imidazole] | 236.0 nm and 370.0 nm | 1.410 a.u and 1.923 a.u |
| Oc1ccc(-c2nc(-c3ccccc3)c(-c3ccccc3)[nH]2)cc1 [2-(4-hydroxyphenyl)-4,5-diphenyl-1H-imidazole] | 225.0 nm and 300.5 nm | 1.015 a.u and 1.364 a.u |
| c1ccc(-c2nc(-c3ccccc3)c(-c3ccccc3)[nH]2)cc1 [2,4,5-triphenyl-1H-imidazole] | 209.0 nm and 296.0 nm | 0.817 a.u and 1.093 a.u |
| CN(C)c1ccc(-c2nc(-c3ccccc3)c(-c3ccccc3)[nH]2)cc1 [2-[4-(N,N-dimethylamino)phenyl]-4,5-diphenyl-1H-imidazole] | 209.5 nm and 322 nm | 2.032 a.u and 2.692 a.u |
| O=[N+]([O-])c1ccc(/C=C/c2nc(-c3ccccc3)c(-c3ccccc3)[nH]2)cc1 [(E)-2-(4-nitrostyryl)-4,5-diphenyl-1H-imidazole] | 202.0 nm and 282.5 nm and 398.5 nm |  |
| C(=C\c1nc(-c2ccccc2)c(-c2ccccc2)[nH]1)/c1ccccc1 [(E)-2-styryl-4,5-diphenyl-1H-imidazole] | 235.2 nm and 344.4 nm |  |
| Clc1ccc(-c2nc(-c3ccccc3)c(-c3ccccc3)[nH]2)cc1 [2-(4-chlorophenyl)-4,5-diphenyl-1H-imidazole] | 231.5 nm and 308.0 nm | 1.066 a.u and 1.371 a.u |
| O=[N+]([O-])c1ccc(-c2nc3c4ccccc4c4ccccc4c3[nH]2)cc1 [2-(4-nitrophenyl)-1H-phenanthro[9,10-d]imidazole] | 202.0 nm and 256.0 nm and 388.5 nm |  |
